Data from PubChem BioAssay (NCI).
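Values below derive from 48-hour exposures of cells grown in 96-well plates, with endpoints linearly interpolated between the two concentrations bracketing the appropriate inhibition level. At the GI50, growth is halved. TGI denotes the concentration required for complete inhibition of growth.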

System: MDA-MB-468 breast
Assay: NCI tumour cell line growth inhibition, 48 h

SMILES	GI50 [µM]	TGI [µM]
C1=Cc2ccccc2Nc2ccccc21	4.36	33.7
COc1cccc(C2c3cc4c(cc3OC(C)(O)C2C)OCO4)c1O (stereo not drawn)	4.83	56.6
C/C=C(\C)C(=O)N[C@H]1CC[C@]2(C)C3CC[C@@]4(C)C(CC[C@@H]4C(C)N(C)C)C3CCC2[C@H]1OC(C)=O (stereo partly drawn)	1.17	2.63
CN(C)c1ccc(N2Cc3ccccc3OC3=C2C(=O)c2c(O)ccc(O)c2C3=O)cn1	0.169	0.425
Cn1cc(-c2nc(-c3c[nH]c4ncccc34)cs2)c2cc(F)ccc21	0.069	0.725
Cn1cncc1[C@@](N)(c1ccc(Cl)cc1)c1ccc2c(c1)c(-c1cccc(Cl)c1)cc(=O)n2C	1.69	6.76
CCCN(CCC)C(=O)C1=Cc2ccc(-c3ccc(C(=O)N4CCCC4)cc3)cc2N=C(N)C1	2.56	11.8
COC(=O)Nc1nc2ccc(Oc3ccc(NC(=O)Nc4cccc(C(=O)O)c4)cc3)cc2[nH]1	0.998	12.8
N#C/C(=C\c1ccc(-c2ccc(Cl)cc2)o1)C(=O)Nc1ncc(Cc2ccc(Cl)cc2)s1	2.38	6.49
Cc1cc(N2CCCCC2)nc(N(CCCNc2ccnc3cc(Cl)ccc23)Cc2ccco2)n1	1.72	3.87
COc1cc2nc(-c3cnc(N(C)C)nc3)nc(NC3CCN(Cc4ccccc4)CC3)c2cc1OC	1.38	2.96
CC1(C)CC[C@]23CC[C@]4(C)[C@H](CC[C@@H]5[C@@]6(C)CCCN(CO)C(C)(C)[C@@H]6CC[C@]54C)[C@H]2[C@H]1OC3	1.81	4.18
O=C1NN(c2ccc(C(=O)O)cc2)C(=O)/C1=C\c1ccc([N+](=O)[O-])o1	22.5	57.4
CCN(CC)CCCC(C)Nc1cnc(C(=O)Nc2ccc(Cl)c3cccnc23)cn1 (stereo not drawn)	1.57	3.49
